According to patent publication EP1222163B1, “2'-SUBSTITUTED 1,1'-BIPHENYL-2-CARBONAMIDES, METHOD FOR THE PRODUCTION THEREOF, USE THEREOF AS A MEDICAMENT AND PHARMACEUTICAL PREPARATIONS CONTAINING SAID COMPOUNDS” (Sanofi-Aventis Deutschland GmbH, priority 1999, dated 2001):

Target: T1, Kv1.5-Kanäle aus dem Menschen (Homo sapiens, UniProt P22460)
T1 construct: expressed in transfected cells; host or cells: Xenopus laevis oocytes injected with in vitro synthesised Kv1.5-coding RNA
Assay: Kv1.5 currents in Xenopus oocytes, two-microelectrode voltage clamp
Format: cell-based
Excerpt: Kv1.5-Kanäle aus dem Menschen wurden in Xenopus Oozyten expremiert. Hierfür wurden zuerst Oozyten aus Xenopus laevis isoliert und defollikuliert. Anschließend wurde in diese Oozyten in vitro synthetisierte Kv1.5 kodierende RNA injiziert. Nach 1 - 7 Tagen Kv1.5-Proteinexpression wurden an den Oozyten mit der Zwei-Mikroelektroden Voltage-Clamp Technik Kv1.5-Ströme gemessen. Die Kv1.5-Kanäle wurden hierbei in der Regel mit 500 ms dauernden Spannungssprüngen auf 0 mV und 40 mV aktiviert. Das Bad wurde mit einer Lösung der nachfolgenden Zusammensetzung durchspült: NaCl 96 mM, KCl 2 mM, CaCl2 1,8 mM, MgCl2 1 mM, HEPES 5 mM (titriert mit NaOH auf pH 7,4). Diese Experimente wurden bei Raumtemperatur durchgeführt. Zur Datenerhebung und Analyse wurden eingesetzt: Geneclamp Verstärker (Axon Instruments, Foster City, USA) und MacLab D/A-Umwandler und Software (ADInstruments, Castle Hill, Australia). Die erfindungsgemäßen Substanzen wurden getestet, indem sie in unterschiedlichen Konzentrationen der Badlösung zugefügt wurden. Die Effekte der Substanzen wurden als prozentuale Inhibition des Kv1.5-Kontrollstromes berechnet, der erhalten wurde, wenn der Lösung keine Substanz zugesetzt wurde. Die Daten wurden anschließend mit der Hill-Gleichung extrapoliert, um die Hemmkonzentrationen IC50 für die jeweiligen Substanzen zu bestimmen.

T1 sequence (P22460 whole entry): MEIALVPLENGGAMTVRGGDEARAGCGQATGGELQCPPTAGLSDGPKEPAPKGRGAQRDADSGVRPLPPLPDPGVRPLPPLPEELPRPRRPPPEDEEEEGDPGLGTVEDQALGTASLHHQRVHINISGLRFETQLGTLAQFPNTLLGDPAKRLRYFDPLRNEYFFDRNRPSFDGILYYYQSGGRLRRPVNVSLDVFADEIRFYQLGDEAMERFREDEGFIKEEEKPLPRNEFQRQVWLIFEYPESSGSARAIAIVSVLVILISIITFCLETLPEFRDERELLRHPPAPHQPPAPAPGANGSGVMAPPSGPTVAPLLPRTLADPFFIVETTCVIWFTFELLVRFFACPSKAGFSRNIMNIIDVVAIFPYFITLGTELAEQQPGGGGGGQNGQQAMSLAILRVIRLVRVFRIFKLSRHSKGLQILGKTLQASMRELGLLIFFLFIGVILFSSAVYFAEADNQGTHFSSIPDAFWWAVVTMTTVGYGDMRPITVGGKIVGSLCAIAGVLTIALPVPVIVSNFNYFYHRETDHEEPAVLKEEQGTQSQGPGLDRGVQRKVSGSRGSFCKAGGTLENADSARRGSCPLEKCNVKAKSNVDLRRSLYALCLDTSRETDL

- IC50: 10.3 µM
Structure (SMILES): NC(=O)[C@H](Cc1ccccc1)NC(=O)c1ccccc1-c1ccccc1CNS(=O)(=O)c1cccc2cccnc12 [Beispiel 12 l]
